Measured values published in ChEMBL document CHEMBL1201862, “PubChem BioAssay data set” (2004).
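Each compound was tested at five concentrations against cells in 96-well plates for 48 hours. GI50 is the concentration that inhibits growth by half.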 Activity calls are given as the source filed them. Rule as the data show it: active = GI50 up to about 1.1 µM and inactive = higher.

How the values were obtained:
Assay in all cases: growth of human tumour cells (NCI), 48 h
UACC-257 = test system: UACC-257
CCRF-CEM = test system: CCRF-CEM
CAKI-1 = test system: CAKI-1
NCI-H226 = test system: NCI-H226
K562 = test system: K562
UACC-62 = test system: UACC-62
SR = test system: SR
UO-31 = test system: UO-31
NCI-H522 = test system: NCI-H522
OVCAR-8 = test system: OVCAR-8
SF-539 = test system: SF-539
SF-295 = test system: SF-295
U-251 = test system: U-251
Malme-3M = test system: Malme-3M
ACHN = test system: ACHN
SNB-78 = test system: SNB-78

Measured: GI50

N#Cc1ccc(/C=C(/C(=O)c2ccccc2)c2ccccc2)cc1
inactive: UACC-257 12.4 µM | CCRF-CEM 3.19 µM | CAKI-1 14.2 µM | NCI-H226 16.7 µM | K562 2.6 µM | UACC-62 7.48 µM | SR 2.62 µM | UO-31 14.2 µM | NCI-H522 8.41 µM | OVCAR-8 6.41 µM | SF-539 21.2 µM | SF-295 9.55 µM | U-251 12.4 µM | Malme-3M 12.6 µM | ACHN 15.5 µM | SNB-78 2.79 µM

COC1(OC)C2(Cl)C(Cl)=C(Cl)C1(Cl)C1C=CC=CC12 (stereo not drawn)
inactive: UACC-257 > 100 µM | CCRF-CEM > 10 µM | CAKI-1 45.7 µM | NCI-H226 > 100 µM | K562 51.6 µM | UACC-62 73.5 µM | SR > 100 µM | UO-31 > 100 µM | NCI-H522 23.8 µM | OVCAR-8 > 100 µM | SF-539 > 100 µM | SF-295 > 100 µM | U-251 > 100 µM | Malme-3M 31.6 µM | ACHN > 100 µM | SNB-78 > 100 µM

NC(=O)c1ncn2c1NCC1OC2C(O)C1O (stereo not drawn)
inactive: UACC-257 > 100 µM | CCRF-CEM > 100 µM | CAKI-1 > 100 µM | NCI-H226 > 100 µM | K562 > 100 µM | UACC-62 > 100 µM | SR > 100 µM | UO-31 > 100 µM | NCI-H522 > 100 µM | OVCAR-8 > 100 µM | SF-539 > 100 µM | SF-295 > 100 µM | U-251 > 100 µM | Malme-3M > 100 µM | ACHN > 100 µM | SNB-78 > 100 µM

O=P(Nc1ccccc1)(Oc1ccccc1)N(CCCl)CCCl (stereo not drawn)
inactive: UACC-257 > 100 µM | CCRF-CEM 37.8 µM | CAKI-1 > 100 µM | NCI-H226 > 100 µM | K562 > 100 µM | UACC-62 89.1 µM | SR > 100 µM | UO-31 12.4 µM | NCI-H522 14 µM | OVCAR-8 71.9 µM | SF-539 > 100 µM | SF-295 69.3 µM | U-251 > 100 µM | Malme-3M > 100 µM | ACHN > 100 µM | SNB-78 > 100 µM

COc1cccc(NC(=O)CC(=O)N2N=C(N(CCC#N)c3ccccc3C)CC2c2ccccc2)c1 (stereo not drawn)
inactive: UACC-257 > 100 µM | CCRF-CEM > 100 µM | CAKI-1 > 100 µM | NCI-H226 > 100 µM | K562 > 100 µM | UACC-62 > 100 µM | SR > 100 µM | UO-31 > 100 µM | NCI-H522 > 100 µM | OVCAR-8 > 100 µM | SF-539 > 100 µM | SF-295 > 100 µM | U-251 > 100 µM | Malme-3M > 100 µM | ACHN > 100 µM | SNB-78 > 100 µM

COc1ccc(OC(C)C(=O)O)c2c(=O)ccccc12 (stereo not drawn)
inactive: UACC-257 > 100 µM | CCRF-CEM > 100 µM | NCI-H226 > 100 µM | K562 > 100 µM | UACC-62 > 100 µM | SR > 100 µM | UO-31 > 100 µM | NCI-H522 > 100 µM | OVCAR-8 > 100 µM | SF-539 > 100 µM | SF-295 > 100 µM | U-251 > 100 µM | Malme-3M > 100 µM | ACHN > 100 µM | SNB-78 > 100 µM

OCC(O)COc1ccc(F)cc1 (stereo not drawn)
inactive: UACC-257 > 100 µM | CCRF-CEM > 100 µM | CAKI-1 > 100 µM | NCI-H226 > 100 µM | K562 > 100 µM | UACC-62 > 100 µM | SR > 100 µM | UO-31 > 100 µM | NCI-H522 > 100 µM | OVCAR-8 > 100 µM | SF-539 > 100 µM | SF-295 > 100 µM | U-251 > 100 µM | Malme-3M > 100 µM | ACHN > 100 µM | SNB-78 > 100 µM

O=C1c2ccccc2C(=O)c2c1ccc1c2N=C(c2ccc(Br)cc2)CC(c2cccc3ccccc23)N1 (stereo not drawn)
inactive: UACC-257 > 100 µM | CCRF-CEM > 100 µM | CAKI-1 > 100 µM | NCI-H226 > 100 µM | K562 > 100 µM | UACC-62 > 100 µM | SR 57.7 µM | UO-31 > 100 µM | NCI-H522 > 100 µM | OVCAR-8 > 100 µM | SF-539 > 100 µM | SF-295 > 100 µM | U-251 > 100 µM | Malme-3M > 100 µM | ACHN > 100 µM | SNB-78 > 100 µM

O=C1CC2(CCC3=C(O2)c2ccccc2NC(=O)C3)C(=O)c2ccccc2N1 (stereo not drawn)
inactive: CCRF-CEM > 100 µM | NCI-H226 > 100 µM | K562 48.1 µM | UACC-62 > 100 µM | SR > 10 µM | UO-31 41.9 µM | NCI-H522 > 100 µM | OVCAR-8 > 100 µM | SF-539 > 100 µM | SF-295 > 100 µM | U-251 > 100 µM | Malme-3M > 100 µM | ACHN > 100 µM | SNB-78 > 100 µM

CC(=O)O[C@H]1CC[C@@]2(C)C(=CC[C@H]3C4=CC=C(C(C)=O)[C@@]4(C)CCC32)C1 (stereo partly drawn)
inactive: UACC-257 24 µM | CCRF-CEM 21.4 µM | CAKI-1 34.8 µM | NCI-H226 15 µM | UACC-62 18.8 µM | SR 19.6 µM | UO-31 43.7 µM | NCI-H522 20 µM | OVCAR-8 21.8 µM | SF-539 47 µM | SF-295 41 µM | U-251 35.7 µM | Malme-3M 31.9 µM | ACHN 34.1 µM | SNB-78 28.2 µM

CCNC(=O)CCN(C(=O)O)S(=O)(=O)c1ccc(NC(=O)c2ccccc2)cc1
inactive: UACC-257 > 100 µM | CCRF-CEM 59.4 µM | CAKI-1 > 100 µM | NCI-H226 > 100 µM | K562 86.3 µM | UACC-62 > 100 µM | SR > 100 µM | UO-31 > 100 µM | NCI-H522 > 100 µM | OVCAR-8 > 100 µM | SF-539 > 100 µM | SF-295 > 100 µM | U-251 > 100 µM | Malme-3M > 100 µM | ACHN > 100 µM | SNB-78 > 100 µM

COc1ccc(-c2cc(O)c3cc4c(cc3n2)OCO4)c(OC)c1OC
inactive: CCRF-CEM 76.9 µM | CAKI-1 > 100 µM | NCI-H226 > 100 µM | K562 43.9 µM | UACC-62 47.6 µM | SR 24.4 µM | UO-31 > 100 µM | NCI-H522 96.2 µM | OVCAR-8 > 100 µM | SF-539 > 100 µM | SF-295 76.6 µM | U-251 > 100 µM | Malme-3M 40.4 µM | ACHN 76.2 µM | SNB-78 > 100 µM

Cc1c(C(=O)C/C(=N/NC(=O)CC#N)C(N)=O)[n+]([O-])c2ccccc2[n+]1[O-]
inactive: UACC-257 35.9 µM | CCRF-CEM 35.1 µM | CAKI-1 > 100 µM | NCI-H226 > 100 µM | K562 52.1 µM | UACC-62 33 µM | SR 46.1 µM | UO-31 > 100 µM | NCI-H522 19.8 µM | OVCAR-8 34.2 µM | SF-539 37.8 µM | SF-295 > 100 µM | U-251 35.7 µM | Malme-3M 32.3 µM | ACHN 54 µM | SNB-78 88.3 µM
